14 molecules from US7867747B2, “Fibrinolytic metalloprotease and composition comprising the same” (priority 2006, dated 2011) can be followed below.

Counter-ions that a name gives are not always drawn. Like-named read-outs stand apart in the source and are kept apart here.

Type in all cases: biochemical
Data set [1] deals with zinc-dependent metalloprotease (purified recombinant enzyme).
The test system of data set [2] is fibrin (human fibrinogen clotted with human thrombin). Nature of the data set: Fibrinolytic assay, hydrolysis of fibrin clots analysed by SDS-PAGE. The note with it: 37° C. How it is done:
Fibrinolytic activity was determined using the method described by Datta et al. (Datta, et al., Arch. Biochem. Biophys. Vol. 317, pp 365-373, 1995) with minor modifications.
Specifically, 10 μl of 1% human fibrinogen (Sigma, USA) solution (prepared in a 20 mM Tris/HCl (pH 7.4) buffer) was added to human thrombin (0.05 NIH unit, Sigma, USA), and then allowed to stand for 1 h at room temperature. […] The hydrolysis of fibrin by the enzyme was analyzed by SDS-PAGE (FIG. 4). 5 μl each of reaction solutions was obtained at various time intervals and analyzed using an 11% SDS-PAGE gel.

Data set [3] has as its system azocasein. Nature of the data set: Protease activity assay, release of acid-soluble material from azocasein. The note with it: 50 mM Tris-HCl pH 7.0, 50° C., 1 h, by purification step. How it is done: Protease activity was determined by measuring the release of acid-soluble material from azocasein (Sigma, USA) (Windle, H. J. P. et al., Infect. Immun. Vol. 65, pp 3132-3137, 1997).
(§1) Specifically, all assays were conducted in a 50 mM Tris-HCl (pH 7.0) buffer. Enzyme samples (100 μl) obtained in Example 2 were added to 100 μl of 1% (w/v) azocasein and the reaction mixture was incubated at 50° C. for 1 h and terminated by the addition of 400 μl of 10% (w/v) trichloroacetic acid. The precipitated protein was removed by centrifugation (12,000×g, 5 min), and the resulting supernatant was transferred to a clean tube containing 700 μl of 525 mM NaOH. Absorbance was measured at 442 nm.
One unit of protease activity was defined as an amount required for producing enough acid-soluble material from azocasein to yield absorbance of 0.1 at 442 nm, following 1 h incubation at 50° C.

Data set [4] concerns azocasein. Nature of the data set: Effects of temperature and pH on enzyme activity (azocasein assay). On the procedure:
as §1
The optimal temperature for protease activity was examined in the buffer used in the standard assay at various temperatures. The values on the ordinate are shown as percentages of the enzyme activity (100%) observed at 50° C.
The optimal pH for the protease activity was determined in various buffers at 50° C. The buffers used were sodium acetate buffers (open rectangles, pH 5.0-6.0), Tris-HCl buffers (open triangles, pH 6.0-8.0) and glycine-NaOH buffers (open circles, pH 8.0-9.0).
The values on the ordinate are shown as percentages of the enzyme activity (100%) observed at pH 7.0. […] The optimal pH for the activity of protease was 7.0 (FIG. 3B).

Setting [5] is: 1 mM, pre-incubation 25° C. 30 min, 50 mM Tris-HCl pH 7.0, no addition = 100.

In the case of `c1cnc2c(c1)ccc1cccnc12` [1,10-phenanthroline], the “effect on enzyme activity (in words)” value in data set [1] (1 mM, as shown in Table 2) is “inhibited”. Further, the Relative activity in data set [1] (setting [5]) was found to be 55%.
Regarding `[Ca+2].[Cl-].[Cl-]` [CaCl2], the “effect on enzyme activity (in words)” value in data set [1] (1 mM, as shown in Table 2) was “enhanced”. Further, in data set [1] (setting [5]), the Relative activity is listed as 200%.
Regarding `[Cl-].[Cl-].[Co+2]` [CoCl2], in data set [1], the “effect on enzyme activity (in words)” value was “enhanced”. Besides, the Relative activity in data set [1] (1 mM) came to 280%.
Regarding `O=S(=O)([O-])[O-].[Cu+2]` [CuSO4], in data set [1] (setting [5]), the Relative activity is 100%.
Consider `O=C(O)CN(CCN(CC(=O)O)CC(=O)O)CC(=O)O` [EDTA, ethylenediaminetetraacetic acid], for which the “effect on enzyme activity (in words)” value in data set [1] is “inhibited”. Besides, the Relative activity in data set [1] (pH 7) stood at 27%.
Regarding `O=C(O)CN(CCOCCOCCN(CC(=O)O)CC(=O)O)CC(=O)O` [EGTA, ethylene glycol-bis(2-aminoethylether)-N,N,N′,N′-tetraacetic acid], the “effect on enzyme activity (in words)” value in data set [1] (1 mM, as shown in Table 2) is “inhibited”. For the same molecule, the Relative activity in data set [1] (setting [5]) is given as 21%.
As for `O=S(=O)([O-])[O-].[Fe+2]` [FeSO4], the Relative activity in data set [1] (setting [5]) was found to be 100%.
Turning to `N=C(N)N` [Guanidine hydrochloride, guanidine hydrochloride], in data set [1] (0.5 M), the “effect on enzyme activity (in words)” value is “strongly inhibited”. For the same molecule, in data set [1] (500 mM, pre-incubation 25° C. 30 min, 50 mM Tris-HCl pH 7.0, no addition = 100), the Relative activity was 22%.
With `[Cl-].[Cl-].[Mg+2]` [MgCl2], in data set [1] (1 mM, as shown in Table 2), the “effect on enzyme activity (in words)” value is on record as “inhibited”. The Relative activity in data set [1] (setting [5]) is listed as 20%.
Taken in the same sequence, the figures for `O=S(=O)([O-])[O-].[Ni+2]` [NiSO4] were “enhanced” and 140%.
As to `O=S(=O)(F)Cc1ccccc1` [PMSF, phenylmethylsulfonyl fluoride], the “effect on enzyme activity (in words)” value in data set [1] (1 mM, as shown in Table 2) was “no influence”. Also, in data set [1] (setting [5]), the Relative activity is given as 104%.
For `CCCCCCCCCCCCOS(=O)(=O)[O-].[Na+]` [SDS, sodium dodecyl sulfate], in data set [1] (17 mM, pre-incubation 25° C. 30 min, 50 mM Tris-HCl pH 7.0, no addition = 100), the Relative activity is reported as 9%. Further, the “effect on enzyme activity (in words)” value in data set [1] (0.05% SDS) is “easily denatured”.
Regarding `[Cl-].[Cl-].[Zn+2]` [ZnCl2], the “effect on enzyme activity (in words)” value in data set [1] (1 mM, as shown in Table 2) is on record as “inhibited”. Besides, the Relative activity in data set [1] (setting [5]) was determined as 80%.

B1: recombinant protease: Zinc-dependent fibrinolytic metalloprotease, 359 amino acids (SEQ ID NO:2), about 39 kDa, from deep-sea sediment metagenome, expressed in E. coli, purified by chitin affinity … (protein)
chain: MEPEPIKTCTVLENPGYQPIHAPTDVSPQPVLAAMEAVPVPTPPPTVDAVMLFRKKWRDGKILRVHFMDGDPDVHRKVEEVAHTWSRHANVRFKFVDDPAADIRISFTQPGSWSYLGTDALRIARSQSTMNFGWLTPRSPDSEYNRVVIHEFGHALGLVHEHQNPDNGIPWNKPAVYEYYSGPPNNWSKEQVDTNLFQQYSEDQVRFTGFDRESIMLYPIPNEFTVGDFEVGWNRDLSADDKEFIGRMYPKPANELIVDDPPRASEISRYGEIDTYTFLVTQKGSYRIETDGRTDLVMLLYGPEDDTKLIAADDDSGRRLNPRITEELDWGKYTVRLQHFSQRQTGKYAVGVYRDDAAE
modifications: Protein sequence of coding metalloprotease ES6349
Turning to B1, the entries for the “hydrolysis of the β-chain of fibrin” value in data set [2] (after 30 min), in data set [2] (after 2 h) and in data set [2] (after 24 h (data not shown)) were “partially hydrolyzed”, “not completely hydrolyzed” and “not completely hydrolyzed”, respectively. Moreover, in data set [2] (after 1 h), the “hydrolysis of the α-chain of fibrin” value was “completely hydrolyzed”. Moreover, the “hydrolysis of the γ-γ-chain of fibrin” value in data set [2] (after 1 h) is listed as “completely hydrolyzed”. The Specific activity is listed as 76,000 U/mg in data set [3] and 3,400 U/mg in data set [3] (listed as Affinity chromatography). The figures for the “Enzyme activity compared with the enzyme activity (100%) at 50° C.” value in data set [4] (at 40° C.) and in data set [4] (at 60° C.) were 26% and 18%, respectively. Moreover, in data set [4] (standard assay buffer, 1 h), the “optimal temperature for the activity of the protease” value was determined as 50 °C. Moreover, the “optimal pH for the activity of protease” value in data set [4] (various buffers at 50° C.) is listed as 7.0.
